Measured values from US5486595A, “Tumor necrosis factor inhibitors” (Centecor, Inc., priority 1994, dated 1996).
Where a SMILES comes first, the peptide text is derived from it.

What follows are compounds tested against T1, human TNFα (Homo sapiens, UniProt P01375) (assay: p55 Receptor/IgG Fusion Protein Binding Assay (inhibition of TNFα capture by p55-Ig coated plate)). Details: peptide 1 mM; TNFα 25 ng/ml; read-out: inhibition of binding of TNFα to p55TNFr-IgG chimeric construct.
T1 construct: purchased Biosource, Camarillo, Calif
T1 sequence (P01375 77-233 limits assumed): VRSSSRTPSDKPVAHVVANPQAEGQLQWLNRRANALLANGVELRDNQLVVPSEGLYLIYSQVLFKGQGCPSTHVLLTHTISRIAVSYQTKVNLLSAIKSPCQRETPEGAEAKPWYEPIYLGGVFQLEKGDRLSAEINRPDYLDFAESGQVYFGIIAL
Protocol: This assay was designed to identify peptides which bind to human TNFα and thereby prevent the capture of the TNFα by a microtiter plate coated with p55-Ig fusion protein. A constant concentration of human TNFα is preincubated with the test peptide and then incubated on the p55-Ig coated microtiter wells. Bound TNFα is detected using a specific antisera and an alkaline phosphatase-conjugated probe.
A 96-well, U-bottom polyvinylchloride microtiter plate was coated with 50 μl/well of p55-Ig fusion protein at 5 μg/ml in 0.01M sodium phosphate, 0.15M sodium chloride (PBS) by incubation overnight at 4° C. or 2 hours at 37° C. The fusion protein, which consists of a p55 TNF receptor protein portion and an IgG portion, can be produced as disclosed in U.S. application Ser. No. 08/010,406 filed Jan. 29, 1993 which is incorporated herein by reference. The plate was washed three times with 0.05% Tween-20 in PBS, then blocked, by adding 150 μl/well of assay buffer (10 mM N-2-hydroxyethylpiperazine-N'-[…] (HEPES) pH 7.2, containing 0.1% porcine gelatin, 0.1% Tween-80, and 0.01% sodium azide) and continuing incubation for 1 hour at 37° C. or at 4° C. for 1-7 days.
Lyophilized peptides to be tested were weighed in tared 12×75 mm polystyrene tubes and reconstituted to a concentration of 1.2 mM with assay buffer. Each suspension was sonicated in a water bath for 1-5 minutes and vortexed 15-30 seconds to disperse large particles. Serial dilutions of each peptide suspension were prepared using assay buffer in a 96-well polystyrene microtiter plate. Additional wells received Fab fragment of the mouse/human monoclonal anti-human TNFα antibody cA2 (positive control) or assay buffer (negative control). […] The polystyrene dilution plate was then sealed and incubated 1 hour at room temperature on an orbital mixer set at moderate speed.
Following the sample preincubation, blocker was discarded from the p55-Ig coated plate and blotted dry. Aliquots (50 μl) of each peptide or control were transferred into duplicate wells on the p55-Ig coated plate which was then sealed and incubated i hour at 37° C. Duplicate wells containing only assay buffer were included as a plate blank. After incubation the p55-Ig plate was washed three times with 0.05% Tween-20 in PBS.
To detect TNFα captured by the p55-Ig plate, all wells were incubated in succession with polyclonal rabbit anti-human TNFα (Genzyme, Boston, Mass.; 1:500 in assay buffer, 50 μl/well), biotinylated goat anti-rabbit Ig (H&L) (Vector Laboratories, Burlingame, Calif.; 1 μg/ml in assay buffer, 50 μl/well) and streptavidin-alkaline phosphatase conjugate (Pierce, Rockford, Ill.; 1 μg/ml in assay buffer, 50 μl/well). All incubations were for 1 hour at 37° C. and after each incubation the plate was washed three times with 0.05% Tween-20 in PBS. Fifty microliters of alkaline phosphatase substrate solution (alkaline buffer (Sigma, St. Louis, Mo.) diluted 1:500 in deionized water plus one 5 mg tablet of p-nitrophenyl phosphate (Sigma, St. Louis, Mo.) per 5 ml of diluted buffer) was added to all wells and incubation continued for 20 minutes at room temperature. Color development was stopped by adding to all wells 50 μl of 3N sodium hydroxide. The optical density (OD) at 405 nm was measured on a microtiter plate reader (Molecular Devices Vmax plate reader), with the plate blank wells subtracted as background. The activity of each peptide was then expressed as the percent inhibition of TNFα capture by the p55-Ig plate, relative to the amount of TNFα captured in wells containing only assay buffer (negative control), as follows: % inhibition=100-((mean OD peptide/mean OD negative control)×100).
The inhibition of binding of TNFα to p55TNFr-IgG chimeric construct was performed as described above using several embodiments of the invention. The peptides were tested at a concentration of 1 mM.

inhibition at 1000 µM	SMILES
46%	CC(C)C[C@H](N)C(=O)N[C@@H](Cc1ccc(O)cc1)C(=O)N[C@@H](CC(N)=O)C(=O)N[C@@H](CC(=O)O)C(=O)N[C@@H](C)C(=O)N1CCC[C@H]1C(=O)NCC(=O)N1CCC[C@H]1C(=O)NCC(=O)N[C@@H](CCC(N)=O)C(=O)N[C@@H](CC(=O)O)C(=O)N[C@H](C(=O)N[C@@H](CC(=O)O)C(=O)N[C@@H](C)C(=O)N[C@@H](CCCNC(=N)N)C(N)=O)[C@@H](C)O [SEQ ID NO:1, Leucyl-tyrosyl-asparaginyl-aspartyl-alanyl-prolyl-glycyl-prolyl-glycyl-glutaminyl-aspartyl-threonyl-aspartyl-alanyl-arginine Amide] (H-LYNDAPGPGQDTDAR-NH2)
62%	C[C@H](NC(=O)[C@H](CCC(=O)O)NC(=O)[C@H](CCCNC(=N)N)NC(=O)[C@H](C)NC(=O)[C@H](CC(=O)O)NC(=O)[C@@H](NC(=O)[C@H](CC(=O)O)NC(=O)[C@H](CCC(N)=O)NC(=O)CNC(=O)[C@@H]1CCCN1C(=O)CNC(=O)[C@@H]1CCCN1C(=O)[C@H](C)NC(=O)[C@@H](N)CC(=O)O)[C@@H](C)O)C(=O)N[C@@H](CCC(=O)O)C(N)=O [SEQ ID NO:2] (H-DAPGPGQDTDAREAE-NH2)
53%	C[C@H](NC(=O)[C@H](CCC(=O)O)NC(=O)[C@H](CCCNC(=N)N)NC(=O)[C@H](C)NC(=O)[C@H](CC(=O)O)NC(=O)[C@@H](NC(=O)[C@H](CC(=O)O)NC(=O)[C@H](CCC(N)=O)NC(=O)CNC(=O)[C@@H]1CCCN1C(=O)CN)[C@@H](C)O)C(=O)N[C@@H](CCC(=O)O)C(=O)N[C@@H](CO)C(=O)NCC(=O)N[C@@H](CO)C(N)=O [SEQ ID NO:3, Glycyl-prolyl-glycyl-glutaminyl-aspartyl-threonyl-aspartyl-alanyl-arginyl-glutamyl-alanyl-glutamyl-seryl-glycyl-serine Amide] (H-GPGQDTDAREAESGS-NH2)
53%	C[C@H](NC(=O)[C@@H](NC(=O)[C@H](Cc1ccccc1)NC(=O)[C@H](CO)NC(=O)CNC(=O)[C@H](CO)NC(=O)[C@H](CCC(=O)O)NC(=O)[C@H](C)NC(=O)[C@H](CCC(=O)O)NC(=O)[C@H](CCCNC(=N)N)NC(=O)[C@H](C)NC(=O)[C@H](CC(=O)O)NC(=O)[C@@H](NC(=O)[C@H](CC(=O)O)NC(=O)[C@@H](N)CCC(N)=O)[C@@H](C)O)[C@@H](C)O)C(N)=O [SEQ ID NO:4, Glutaminyl-aspartyl-threonyl-aspartyl-alanyl-arginyl-glutamyl-alanyl-glutamyl-seryl-glycyl-seryl-phenylalanyl-threonyl-alanine Amide] (H-QDTDAREAESGSFTA-NH2)
58%	C[C@H](NC(=O)[C@H](CCC(=O)O)NC(=O)[C@H](CCCNC(=N)N)NC(=O)[C@H](C)NC(=O)[C@@H](N)CC(=O)O)C(=O)N[C@@H](CCC(=O)O)C(=O)N[C@@H](CO)C(=O)NCC(=O)N[C@@H](CO)C(=O)N[C@@H](Cc1ccccc1)C(=O)N[C@H](C(=O)N[C@@H](C)C(=O)N[C@@H](CO)C(=O)N[C@@H](CCC(=O)O)C(=O)N[C@@H](CC(N)=O)C(N)=O)[C@@H](C)O [SEQ ID NO:5] (H-DAREAESGSFTASEN-NH2)
53%	CC(C)C[C@H](NC(=O)[C@H](Cc1c[nH]cn1)NC(=O)[C@H](CC(N)=O)NC(=O)[C@H](CCC(=O)O)NC(=O)[C@H](CO)NC(=O)[C@H](C)NC(=O)[C@@H](NC(=O)[C@H](Cc1ccccc1)NC(=O)[C@H](CO)NC(=O)CNC(=O)[C@H](CO)NC(=O)[C@H](CCC(=O)O)NC(=O)[C@H](C)NC(=O)[C@@H](N)CCC(=O)O)[C@@H](C)O)C(=O)N[C@@H](CCCNC(=N)N)C(N)=O [SEQ ID NO:6, Glutamyl-alanyl-glutamyl-seryl-glycyl-seryl-phenylalanyl-threonyl-alanyl-seryl-glutamyl-asparaginyl-histidyl-leucyl-arginine Amide] (H-EAESGSFTASENHLR-NH2)
42%	CC[C@H](C)[C@H](NC(=O)[C@H](CCC(=O)O)NC(=O)[C@@H](NC(=O)[C@H](CCC(N)=O)NC(=O)CNC(=O)[C@H](CCSC)NC(=O)[C@H](CCC(=O)O)NC(=O)[C@@H](N)CCCCN)C(C)C)C(=O)N[C@@H](CO)C(=O)N[C@@H](CO)C(=O)N[C@@H](C)C(=O)N[C@H](C(=O)N[C@H](C(=O)N[C@@H](CC(=O)O)C(=O)N[C@@H](CCCNC(=N)N)C(N)=O)C(C)C)[C@@H](C)O [SEQ ID NO:7]
56%	CC[C@H](C)[C@H](NC(=O)[C@H](CCC(=O)O)NC(=O)[C@@H](NC(=O)[C@H](CCC(N)=O)NC(=O)CN)C(C)C)C(=O)N[C@@H](CO)C(=O)N[C@@H](CO)C(=O)N[C@@H](C)C(=O)N[C@H](C(=O)N[C@H](C(=O)N[C@@H](CC(=O)O)C(=O)N[C@@H](CCCNC(=N)N)C(=O)N[C@@H](CC(=O)O)C(=O)N[C@H](C(=O)N[C@H](C(N)=O)C(C)C)[C@@H](C)O)C(C)C)[C@@H](C)O [SEQ ID NO:8] (H-GQVEISSATVDRDTV-NH2)
30%	CC(C)[C@H](NC(=O)[C@@H](NC(=O)[C@@H](N)CC(=O)O)[C@@H](C)O)C(=O)N[C@@H](C)C(=O)NCC(=O)N[C@@H](C)C(=O)N[C@@H](CCCNC(=N)N)C(=O)N[C@@H](CCCCN)C(=O)N[C@@H](CC(N)=O)C(=O)N[C@@H](CCC(N)=O)C(=O)N[C@@H](Cc1ccc(O)cc1)C(=O)N[C@@H](CCCNC(=N)N)C(=O)N[C@@H](Cc1c[nH]cn1)C(=O)N[C@@H](Cc1ccc(O)cc1)C(=O)N[C@@H](Cc1c[nH]c2ccccc12)C(N)=O [SEQ ID NO:9, Aspartyl-threonyl-valyl-alanyl-glycyl-alanyl-arginyl-lysyl-asparaginyl-glutaminyl-tyrosyl-arginyl-histidyl-tyrosyl-tryptophan Amide] (H-DTVAGARKNQYRHYW-NH2)
49%	CC(C)C[C@H](NC(=O)[C@H](CC(N)=O)NC(=O)[C@H](CCC(=O)O)NC(=O)[C@H](CO)NC(=O)[C@H](Cc1c[nH]c2ccccc12)NC(=O)[C@H](Cc1ccc(O)cc1)NC(=O)[C@H](Cc1c[nH]cn1)NC(=O)[C@H](CCCNC(=N)N)NC(=O)[C@H](Cc1ccc(O)cc1)NC(=O)[C@H](CCC(N)=O)NC(=O)[C@H](CC(N)=O)NC(=O)[C@H](CCCCN)NC(=O)[C@@H](N)CCCNC(=N)N)C(=O)N[C@@H](Cc1ccccc1)C(=O)N[C@@H](CCC(N)=O)C(N)=O [SEQ ID NO:10]
27%	CC(=O)N[C@@H](CCC(N)=O)C(=O)N[C@@H](Cc1ccc(O)cc1)C(=O)N[C@@H](CCCNC(=N)N)C(=O)N[C@@H](Cc1c[nH]cn1)C(=O)N[C@@H](Cc1ccc(O)cc1)C(=O)N[C@@H](Cc1c[nH]c2ccccc12)C(=O)N[C@@H](CO)C(=O)N[C@@H](CCC(=O)O)C(=O)N[C@@H](CC(N)=O)C(=O)N[C@@H](CC(C)C)C(=O)N[C@@H](Cc1ccccc1)C(=O)N[C@@H](CCC(N)=O)C(=O)N[C@@H](C)C(=O)N[C@@H](Cc1ccccc1)C(=O)N[C@@H](CC(N)=O)C(N)=O [SEQ ID NO:11, Acetyl-glutaminyl-tyrosyl-arginyl-histidyl-tyrosyl-tryptophyl-seryl-glutamyl-asparaginyl-leucyl-phenylalanyl-glutaminyl-alanyl-phenylalanyl-asparagineAmide]

Same assay, conditions: various concentrations of peptide

dose dependent inhibition of TNFα (FIG. 1)	SMILES
dose dependent inhibition	CC(=O)N[C@@H](CCC(N)=O)C(=O)N[C@@H](Cc1ccc(O)cc1)C(=O)N[C@@H](CCCNC(=N)N)C(=O)N[C@@H](Cc1c[nH]cn1)C(=O)N[C@@H](Cc1ccc(O)cc1)C(=O)N[C@@H](Cc1c[nH]c2ccccc12)C(=O)N[C@@H](CO)C(=O)N[C@@H](CCC(=O)O)C(=O)N[C@@H](CC(N)=O)C(=O)N[C@@H](CC(C)C)C(=O)N[C@@H](Cc1ccccc1)C(=O)N[C@@H](CCC(N)=O)C(=O)N[C@@H](C)C(=O)N[C@@H](Cc1ccccc1)C(=O)N[C@@H](CC(N)=O)C(N)=O [SEQ ID NO:11, Acetyl-glutaminyl-tyrosyl-arginyl-histidyl-tyrosyl-tryptophyl-seryl-glutamyl-asparaginyl-leucyl-phenylalanyl-glutaminyl-alanyl-phenylalanyl-asparagineAmide]
